What was measured:
[1] = test system: Fusarium nivale ATCC 42308; assay: Influence on growth of mold (length and branching degree of hyphae); type: cell-based; parameters: Length Hypha: unit not given here; conditions: after 32 hours; for Branching Degree of Hypha (mean value of branch intervals of hyphae) / Length Hypha: 28° C.
Procedure: Demethylallosamidin was added to the culture medium of mold to examine its influence. Firstly, Fusarium nivale ATCC 42308 was precultured in PDA medium (manufactured by Nissui Pharmaceutical Co., Ltd.) to form spores. The spores were suspended in physiological saline. The suspension was filtered through cotton to give a spore suspension free of hyphae. A fixed amount of the resulting suspension was inoculated on a medium supplemented with demethylallosamidin (0.80 μg/ml, 0.16 μg/ml) and on demethylallosamidin-free medium (control), respectively. […] The observation was performed as follows: sampling was made over definite periods of time, microscopic photographs were taken and the length and branching degree of hyphae were determined. The branching degree of hyphae is a mean value of branch intervals of hyphae. In any case, incubation was carried out at 28° C. at 120 strokes/min by charging 1 ml each of medium (0.03% of yeast extract, 0.03% of malt extract; both manufactured by Daigo Nutrient Co., Ltd.) and 0.1% of glucose in a testing tube with a cotton stopper (diameter of 11 mm).

[2] = test system: Mouse ascitic mammary cancer cells FM3A; assay: Cytotoxicity, mouse ascitic mammary cancer cells FM3A; type: cell-based; conditions: 1 mg/ml, 37° C., 4 days
Procedure: (i) Mouse ascitic mammary cancer cells FM3A were inoculated in 1×10^5 /ml on Dulbecco modified MEM medium supplemented with 10% fetal calf serum and demethylallosamidin was added thereto in a concentration of 1 mg/ml followed by stationary culture at 37° C. for 4 days.

[3] = test system: Human leukemia cells K562; assay: Cytotoxicity, human leukemia cells K562; type: cell-based; conditions: 1 mg/ml, 37° C., 4 days
Procedure: (ii) Human leukemia cells K562 were inoculated in 1×10^5 /ml on FRMI 1640 medium supplemented with 10% fetal calf serum and demethylallosamidin was added thereto in a concentration of 1 mg/ml followed by stationary culture at 37° C. for 4 days.

[4] = biological target: T1, fungi-derived chitinase (chitinase solution from baker's yeast) (Saccharomyces cerevisiae, UniProt P29029); assay: Determination of chitinase inhibitory activity (3H-chitin hydrolysis); type: biochemical; conditions: for Inhibition Rate (%): 37° C., 3 hours, pH 3.0
T1 construct: The cells were removed by centrifugation (0° C., 10 mins., 12,000 g); The resulting supernatant was concentrated to 200 ml by ultrafiltration; host or cells: baker's yeast; concentrated, acid-treated supernatant of shaken cells
T1 sequence (P29029 21-562): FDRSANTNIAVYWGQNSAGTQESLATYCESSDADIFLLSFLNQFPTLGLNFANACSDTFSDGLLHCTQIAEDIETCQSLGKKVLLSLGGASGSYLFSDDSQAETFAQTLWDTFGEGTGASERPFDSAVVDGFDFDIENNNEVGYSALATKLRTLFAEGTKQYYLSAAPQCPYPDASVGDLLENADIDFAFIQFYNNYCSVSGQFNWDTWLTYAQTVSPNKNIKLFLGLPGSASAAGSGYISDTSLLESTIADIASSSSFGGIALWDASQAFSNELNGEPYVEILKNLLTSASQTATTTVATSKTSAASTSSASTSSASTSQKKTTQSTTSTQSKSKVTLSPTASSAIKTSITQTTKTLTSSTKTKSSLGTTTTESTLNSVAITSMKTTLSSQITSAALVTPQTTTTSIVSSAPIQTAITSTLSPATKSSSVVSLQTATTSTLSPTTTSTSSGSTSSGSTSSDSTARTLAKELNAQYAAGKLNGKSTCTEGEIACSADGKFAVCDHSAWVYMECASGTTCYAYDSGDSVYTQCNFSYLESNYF
Procedure: A Sakaguchi flask of 2 liters was charged with 1 liter of 25 mM MES (Nakarai Chemical Co., Ltd.) buffer containing 0.1% β-mercaptoethanoland 200 g of baker's yeast (Kanegafuchi Chemical Industry Co., Ltd.) followed by shaking at 30° C. at 120 spm for 2 hours. The cells were removed by centrifugation (0° C., 10 mins., 12,000 g). The resulting supernatant was concentrated to 200 ml by ultrafiltration (TOYO ULTRAFILTER UP-20). After concentration, 400 ml of citrate buffer (0.15 M citric acid+0.15 M sodium citrate, pH 3.0) was added to the concentrate. After the formed precipitates were removed by centrifugation (0° C., 10 mins., 12,000 g), the resulting supernatant was concentrated to 40 ml by ultrafiltration. The concentrate was stored at 4° C. and used as the chitinase solution in the assay.
10 ml of 10% acetic acid was slowly added to 0.5 g of chitosan (PFANSTIEHL LABORATORIES INC.), then the mixture was kneaded in a mortar to become gel-like. After standing at room temperature overnight, 45 ml of methanol was added while thoroughly stirring. The mixture was filtered through a gauze and 0.75 ml of ^3 H-labeled acetic anhydride (NET 018A10 ACETIC ANHYDRIDE 5 mCi) was added to the filtrate obtained. The formed agar-like chitin was homogenized with a homogenizer, collected on a glass filter (Whatmann GF/B) and suspended in 10 ml of citrate buffer (pH 3.0). This chitin suspension (2.3 μCi/ml chitin suspension) was used as a substrate for assay.
In an Epfendorf tube, 90 μl of the chitinase solution and 10 μl of the ^3 H-chitin suspension were charged and reacted at 37° C. for 3 hours. In this case, 90 μl of citrate buffer (pH 3.0) was used in place of 90 μl of the enzyme solution as a control sample and reacted in a similar manner. After the reaction, 100 μl of 10% trichloroacetic acid was added and the reaction solution was passed through a glass filter (Whatmann GF/B). After 10 ml of scintillant solution was added to the obtained filtrate, its radioactivity (dpm) was determined. The difference between the determined value and the control sample indicated chitinase activity. The scintillant solution was prepared by dissolving 4 g of Ominiflour (Daiichi Chemical) in 500 ml of toluene and adding 500 ml of Triton X-100 (Nakarai Chemical Co., Ltd.) to the solution.
When allosamidin and demethylallosamidin were added, both were dissolved in 0.1 N acetic acid solution and 10 μl each of the solutions having the respective concentrations was added to the reaction system described above. Also, 10 μl of 0.1 N acetic acid was added to the blank and to the system in which no inhibitor was added, followed by the reaction described above.
The inhibitory activity was calculated according to the equation below: [formula] wherein: A=chitinase activity (dpm) when no inhibitor was added.
B=chitinase activity (dmp) when the inhibitor was added.
In any of the measurements, three series of runs were used and a mean value was determined.

[5] = test system: endo-type chitinase derived from insects; conditions: background statement; cited from earlier work
[6] = biological target: T1, fungi-derived chitinase (chitinase solution from baker's yeast); conditions: background statement; cited from earlier work
[7] = addition of demethylallosamidin

## CNC1=NC2C(O)C(OC3OC(CO)C(OC4OC(CO)C(O)C(O)C4NC(C)=O)C(O)C3NC(C)=O)C(CO)C2O1 (single isomer, unassigned) [Demethylallosamidin, demethylallosamidin]
[1]; 0.16 μg/ml
  Branching Degree of Hypha (mean value of branch intervals of hyphae): 72.8 μm
  Length Hypha: 364
[1]; 0.80 μg/ml
  Branching Degree of Hypha (mean value of branch intervals of hyphae): 74.2 μm
  Length Hypha: 576
[1]; [7]
  branching degree of hyphae (in words): decreased
  length of hyphae (in words): obviously increased
[2]
  growth inhibition (microscopic observation): no growth inhibition
[2]; listed as demethylallosamidin
  growth inhibition (microscopic observation): no growth inhibition was noted at all
[3]
  growth inhibition (microscopic observation): no growth inhibition
[3]; listed as demethylallosamidin
  growth inhibition (microscopic observation): no growth inhibition was noted at all
[4]
  inhibitory activity against fungi-derived chitinase (in words): potent inhibitory activity
[4]; amount added 0.05 μg
  Inhibition Rate (%): 61.1%
[4]; amount added 0.1 μg
  Inhibition Rate (%): 73.9%
[4]; amount added 0.2 μg
  Inhibition Rate (%): 75.2%
[4]; amount added 0.4 μg
  Inhibition Rate (%): 84.6%
[4]; amount added 0.8 μg
  Inhibition Rate (%): 87.1%
[4]; fungi-derived chitinase, versus allosamidin
  inhibitory activity per unit weight relative to allosamidin: ≤ 100 times

## CC(=O)N[C@H]1[C@H](O[C@H]2[C@@H](O)[C@@H](NC(C)=O)[C@H](O[C@H]3[C@H](O)[C@H]4N=C(N(C)C)O[C@H]4[C@@H]3CO)O[C@@H]2CO)O[C@H](CO)[C@@H](O)[C@H]1O [Allosamidin, allosamidin]
[5]
  inhibition of endo-type chitinase derived from insects (in words): strongly inhibits
[6]
  inhibitory activity against chitinase derived from fungi (in words, background): weakly inhibitory activity
[4]; amount added 1 μg
  Inhibition Rate (%): 36.0%
[4]; amount added 2 μg
  Inhibition Rate (%): 47.6%
[4]; amount added 4 μg
  Inhibition Rate (%): 58.5%

— US5070191A, “Demethylallosamidin and a process for production thereof” (Ajinomoto Co., Inc., priority 1989, dated 1991)
